This test concerns the target Epidermal growth factor receptor (Homo sapiens, UniProt P00533). Description: Biochemical EGFR Inhibition Assays ([…]): 5 μL of EGFR enzyme form in assay buffer (50 mM HEPES pH 7.3, 10 mM MgCl2, 1 mM EGTA, 0.01% Tween 20, 2 mM DTT) are dispensed into columns 1-23, than 5 μL of ATP and ULight-poly-GT substrate (PerkinElmer; TRF0100-M) mix in assay buffer is added to all wells (final assay concentration of the ULight-poly-GT substrate 200 nM). Each of the different ….

Bounds are passed on as bounds.

Chain of Epidermal growth factor receptor (P00533 whole entry): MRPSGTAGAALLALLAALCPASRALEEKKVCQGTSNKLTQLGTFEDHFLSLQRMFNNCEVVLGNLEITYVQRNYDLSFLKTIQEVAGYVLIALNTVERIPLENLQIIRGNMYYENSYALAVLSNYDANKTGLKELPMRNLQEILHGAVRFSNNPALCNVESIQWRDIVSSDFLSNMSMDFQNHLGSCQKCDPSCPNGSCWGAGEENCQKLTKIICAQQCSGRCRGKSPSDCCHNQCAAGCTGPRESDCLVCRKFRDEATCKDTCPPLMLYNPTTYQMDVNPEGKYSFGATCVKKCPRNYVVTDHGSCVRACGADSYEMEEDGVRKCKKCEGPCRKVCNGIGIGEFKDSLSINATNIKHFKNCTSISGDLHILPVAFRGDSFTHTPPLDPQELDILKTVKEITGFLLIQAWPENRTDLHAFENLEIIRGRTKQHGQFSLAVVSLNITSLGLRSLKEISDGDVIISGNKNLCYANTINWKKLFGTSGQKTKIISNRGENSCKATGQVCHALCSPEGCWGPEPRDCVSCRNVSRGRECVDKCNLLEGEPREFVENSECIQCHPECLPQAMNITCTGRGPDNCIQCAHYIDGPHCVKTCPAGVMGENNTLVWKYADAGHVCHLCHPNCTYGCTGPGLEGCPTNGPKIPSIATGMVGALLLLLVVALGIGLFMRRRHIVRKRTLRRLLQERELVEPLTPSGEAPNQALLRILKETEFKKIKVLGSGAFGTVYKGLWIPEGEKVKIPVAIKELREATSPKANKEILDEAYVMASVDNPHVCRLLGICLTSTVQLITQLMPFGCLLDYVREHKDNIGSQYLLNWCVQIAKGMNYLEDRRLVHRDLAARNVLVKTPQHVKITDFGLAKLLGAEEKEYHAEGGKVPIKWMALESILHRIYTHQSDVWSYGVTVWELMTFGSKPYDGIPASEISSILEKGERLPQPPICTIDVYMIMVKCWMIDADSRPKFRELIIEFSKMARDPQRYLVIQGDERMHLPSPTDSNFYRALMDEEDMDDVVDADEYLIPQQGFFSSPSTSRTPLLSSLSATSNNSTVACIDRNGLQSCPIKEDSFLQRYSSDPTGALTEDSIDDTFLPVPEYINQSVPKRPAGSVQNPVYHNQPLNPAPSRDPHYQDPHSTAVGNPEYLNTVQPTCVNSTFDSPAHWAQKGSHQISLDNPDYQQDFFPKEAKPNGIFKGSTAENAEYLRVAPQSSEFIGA

For the molecule `Cn1cc(-c2cc(C(=O)/N=c3\[nH]c4ccccc4n3CC(C)(C)O)ccn2)cn1`, the half-maximal inhibitory concentration (IC50) (usually the midpoint of a concentration-inhibition curve) was over 100 µM. For the molecule `COc1ccncc1-c1cc(C(=O)/N=c2\[nH]c3cc(C4CCN(C(C)=O)CC4)ccc3n2CC(C)(C)O)ccn1`, the 50% inhibitory concentration (IC50) was determined as 0.217 µM.

The values are drawn from ChEMBL document CHEMBL5728826, “Benzimidazole compounds and derivatives as EGFR inhibitors” (2021).
